Paper PMC6941952, “A homogeneous bioluminescent immunoassay to probe cellular signaling pathway regulation” (Communications Biology, 2020)
Where “and” joins values, the source holds several entries; their conditions need not be identical. Equal values may be shown once.

Test system: STAT3 Phospho-Tyr705
Assay: NanoBiT pSTAT3 cell-based immunoassay in A431 cells
Design: species or system human
Conditions: IL-6 10 ng/ml; for P-STAT3 (% compared to no inhibitor): replicate
Protocol: Prior to NanoBiT Cell-Based Immunoassay, 50,000 cells were seeded in 160 µl of complete growth media per well of a 96-well plate and incubated overnight. […] If necessary, the cell culture media were replaced with serum-free media after the cells were stably adherent on the plate and incubated overnight. To treat cells with activators or inhibitors, medium was changed to 30 µl of medium containing inhibitors. If activation of a specific pathway is needed, the cells were stimulated with 10 µl of medium containing activators. To lyse the cells, 10 µl of lysis buffer containing 0.1% digitonin diluted in 1X immunoassay buffer with protease and phosphatase inhibitors was added and the plates were mixed vigorously for 20 min. Then, 50 µl of an antibody mix containing two primary antibodies against the target protein and NanoBiT detecting antibodies (0.3 µl each per well), diluted in 1X immunoassay buffer was added to the lysates. The plates were incubated at 23 °C for 90 min, followed by the addition of 25 µl of Nano-Glo® reagent consisting of Nano-Glo® Luciferase Assay Substrate mixed with 1X immunoassay buffer. Luminescence was measured using a plate-reading luminometer.
Single dose or dose response inhibitor treatments were performed prior to activation of the pathways as follows. For IκBα, the cells were treated in 30 µl medium with IKK16 or MG132 for 60 min before the addition of 10 µl of DMEM containing appropriate concentration of TNFα. To measure phosphorylation of AKT or STAT3, the corresponding NanoBiT immunoassays were developed with MCF-7 or A431 cells, respectively, according the same scheme used to develop the IκBα assay using the primary antibodies for AKT and STAT3 described in the reagents section. […] Treatment with LY294002 was performed in 30 µl medium and cells were incubated for 60 min before the addition of 1 µM Insulin. To measure STAT3 phosphorylation, A431 cells were incubated overnight in DMEM medium without serum. […] After addition of the stimulators, the cells were incubated for additional times as follows. IκBα phosphorylation and degradation analyses required both time courses and single time points as described in figures. […] The NanoBiT immunoassay protocol was followed as described above.
All 96-well assay plates were read using a GloMax® 96 Microplate Luminometer from Promega. The instrument was set to 0.5 s integration time. In order to obtain net change of signal, the reagent background values (signal from the well containing all reagent except primary antibodies) were subtracted from the sample values. To plot and analyze the data, Microsoft Excel and GraphPad Prism® Software were used. IC50 values were determined by using a nonlinear regression fit to a sigmoidal dose response (variable slope).

CN(C)C(=O)/C(C#N)=C/c1ccc(-c2nc3cnc4[nH]ccc4c3n2C2CCCCC2)o1 [FM-381]
P-STAT3 (% compared to no inhibitor) Average (inhibitor 0.0190735 nM): 105.1%
P-STAT3 (% compared to no inhibitor) Average (inhibitor 0.038147 nM): 92.2%
P-STAT3 (% compared to no inhibitor) Average (inhibitor 0.0762939 nM): 92.0%
P-STAT3 (% compared to no inhibitor) Average (inhibitor 0.152588 nM): 93.2%
P-STAT3 (% compared to no inhibitor) Average (inhibitor 0.305176 nM): 90.6%
P-STAT3 (% compared to no inhibitor) Average (inhibitor 0.610352 nM): 92.3%
P-STAT3 (% compared to no inhibitor) Average (inhibitor 1.2207 nM): 95.1%
P-STAT3 (% compared to no inhibitor) Average (inhibitor 2.44141 nM): 87.8%
P-STAT3 (% compared to no inhibitor) Average (inhibitor 4.88281 nM): 94.8%
P-STAT3 (% compared to no inhibitor) Average (inhibitor 9.76562 nM): 88.5%
P-STAT3 (% compared to no inhibitor) Average (inhibitor 19.5312 nM): 102.9%
P-STAT3 (% compared to no inhibitor) Average (inhibitor 39.0625 nM): 94.1%
P-STAT3 (% compared to no inhibitor) Average (inhibitor 78.125 nM): 88.7%
P-STAT3 (% compared to no inhibitor) Average (inhibitor 156.25 nM): 85.8%
P-STAT3 (% compared to no inhibitor) Average (inhibitor 312.5 nM): 74.2%
P-STAT3 (% compared to no inhibitor) Average (inhibitor 625 nM): 60.8%
P-STAT3 (% compared to no inhibitor) Average (inhibitor 2500 nM): 22.9%
P-STAT3 (% compared to no inhibitor) Average (inhibitor 5000 nM): 12.0%
P-STAT3 (% compared to no inhibitor) Average (inhibitor 10000 nM): 7.8%
P-STAT3 (% compared to no inhibitor) Average (inhibitor […]): 41.3%
P-STAT3 Raw data (inhibitor 0.0190735 nM): 278100 and 296300 and 285800
P-STAT3 Subtract reagent background (inhibitor 0.0190735 nM): 177250 and 195450 and 184950
P-STAT3 Raw data (inhibitor 0.038147 nM): 270700 and 268700 and 257500
P-STAT3 Subtract reagent background (inhibitor 0.038147 nM): 168850 and 166850 and 155650
P-STAT3 Raw data (inhibitor 0.0762939 nM): 272300 and 259800 and 258800
P-STAT3 Subtract reagent background (inhibitor 0.0762939 nM): 172505 and 160005 and 159005
P-STAT3 Raw data (inhibitor 0.152588 nM): 261700 and 262700 and 269600
P-STAT3 Subtract reagent background (inhibitor 0.152588 nM): 162310 and 163310 and 170210
P-STAT3 Raw data (inhibitor 0.305176 nM): 244400 and 266100 and 264700
P-STAT3 Subtract reagent background (inhibitor 0.305176 nM): 145940 and 167640 and 166240
P-STAT3 Raw data (inhibitor 0.610352 nM): 253900 and 276500 and 252400
P-STAT3 Subtract reagent background (inhibitor 0.610352 nM): 156070 and 178670 and 154570
P-STAT3 Raw data (inhibitor 1.2207 nM): 278300 and 261300 and 251600
P-STAT3 Subtract reagent background (inhibitor 1.2207 nM): 184135 and 167135 and 157435
P-STAT3 Raw data (inhibitor 2.44141 nM): 238200 and 252900 and 237300
P-STAT3 Subtract reagent background (inhibitor 2.44141 nM): 150835 and 165535 and 149935
P-STAT3 Raw data (inhibitor 4.88281 nM): 243400 and 259600 and 241900
P-STAT3 Subtract reagent background (inhibitor 4.88281 nM): 162830 and 179030 and 161330
P-STAT3 Raw data (inhibitor 9.76562 nM): 219800 and 245100 and 214000
P-STAT3 Subtract reagent background (inhibitor 9.76562 nM): 149750 and 175050 and 143950
P-STAT3 Raw data (inhibitor 19.5312 nM): 297400 and 269300 and 273700
P-STAT3 Subtract reagent background (inhibitor 19.5312 nM): 172850 and 196550 and 168450
P-STAT3 Raw data (inhibitor 39.0625 nM): 266500 and 275400 and 255500
P-STAT3 Subtract reagent background (inhibitor 39.0625 nM): 153650 and 164650 and 173550
P-STAT3 Raw data (inhibitor 78.125 nM): 243600 and 255500 and 264900
P-STAT3 Subtract reagent background (inhibitor 78.125 nM): 165105 and 143805 and 155705
P-STAT3 Raw data (inhibitor 156.25 nM): 244000 and 250600 and 253000
P-STAT3 Subtract reagent background (inhibitor 156.25 nM): 153610 and 144610 and 151210
P-STAT3 Raw data (inhibitor 312.5 nM): 227000 and 243200 and 212500
P-STAT3 Subtract reagent background (inhibitor 312.5 nM): 114040 and 128540 and 144740
P-STAT3 Raw data (inhibitor 625 nM): 189200 and 199400 and 224200
P-STAT3 Subtract reagent background (inhibitor 625 nM): 126370 and 91370 and 101570
P-STAT3 Raw data (inhibitor 2500 nM): 128000 and 133500 and 120100
P-STAT3 Subtract reagent background (inhibitor 2500 nM): 32735 and 40635 and 46135
P-STAT3 Raw data (inhibitor 5000 nM): 101000 and 109100 and 93870
P-STAT3 Raw data (inhibitor 10000 nM): 84360 and 88520 and 77950
P-STAT3 (% compared to no inhibitor) (inhibitor 0.0190735 nM): 88.0% and 120.5% and 106.8%
P-STAT3 (% compared to no inhibitor) (inhibitor 0.038147 nM): 83.9% and 102.9% and 89.9%
P-STAT3 (% compared to no inhibitor) (inhibitor 0.0762939 nM): 85.7% and 98.6% and 91.8%
P-STAT3 (% compared to no inhibitor) (inhibitor 0.152588 nM): 80.6% and 100.7% and 98.3%
P-STAT3 (% compared to no inhibitor) (inhibitor 0.305176 nM): 72.5% and 103.3% and 96.0%
P-STAT3 (% compared to no inhibitor) (inhibitor 0.610352 nM): 77.5% and 110.1% and 89.2%
P-STAT3 (% compared to no inhibitor) (inhibitor 1.2207 nM): 91.5% and 103.0% and 90.9%
P-STAT3 (% compared to no inhibitor) (inhibitor 2.44141 nM): 74.9% and 102.0% and 86.6%
P-STAT3 (% compared to no inhibitor) (inhibitor 4.88281 nM): 80.9% and 110.4% and 93.1%
P-STAT3 (% compared to no inhibitor) (inhibitor 9.76562 nM): 74.4% and 107.9% and 83.1%
P-STAT3 (% compared to no inhibitor) (inhibitor 19.5312 nM): 95.2% and 115.2% and 98.2%
P-STAT3 (% compared to no inhibitor) (inhibitor 39.0625 nM): 84.6% and 96.5% and 101.2%
P-STAT3 (% compared to no inhibitor) (inhibitor 78.125 nM): 90.9% and 84.3% and 90.8%
P-STAT3 (% compared to no inhibitor) (inhibitor 156.25 nM): 84.6% and 84.8% and 88.2%
P-STAT3 (% compared to no inhibitor) (inhibitor 312.5 nM): 62.8% and 75.3% and 84.4%
P-STAT3 (% compared to no inhibitor) (inhibitor 625 nM): 69.6% and 53.6% and 59.2%
P-STAT3 (% compared to no inhibitor) (inhibitor 2500 nM): 18.0% and 23.8% and 26.9%
P-STAT3 (% compared to no inhibitor) (inhibitor 5000 nM): 7.3% and 12.0% and 16.6%
P-STAT3 (% compared to no inhibitor) (inhibitor 10000 nM): 4.3% and 8.4% and 10.8%
